Results as given in PubChem BioAssay (NCI).
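Step 1: Grow cells in 96-well plates. Step 2: Expose to compound for 48 hours at 5 concentrations. Step 3: Interpolate endpoints linearly; if unreached, use highest concentration. At the GI50, growth is halved. TGI is the concentration that stops growth completely.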

Key:
Assay in all cases: DTP human tumour cell line panel, 48 h
[1] = system: OVCAR-3 ovarian
[2] = system: CAKI-1 renal
[3] = system: NCI-H226 lung
[4] = system: SF-268 CNS
[5] = system: OVCAR-8 ovarian
[6] = system: OVCAR-5 ovarian
[7] = system: UO-31 renal
[8] = system: HOP-92 NSCLC
[9] = system: MDA-MB-231 breast
[10] = system: IGROV1 ovarian

| Compound | GI50 [1] [µM] | TGI [1] [µM] | GI50 [2] [µM] | TGI [2] [µM] | GI50 [3] [µM] | TGI [3] [µM] | GI50 [4] [µM] | TGI [4] [µM] | GI50 [5] [µM] | TGI [5] [µM] | GI50 [6] [µM] | TGI [6] [µM] | GI50 [7] [µM] | TGI [7] [µM] | TGI [8] [µM] | GI50 [9] [µM] | TGI [9] [µM] | TGI [10] [µM] | GI50 [10] [µM] | GI50 [8] [µM] |
| --- | --- | --- | --- | --- | --- | --- | --- | --- | --- | --- | --- | --- | --- | --- | --- | --- | --- | --- | --- | --- |
| COc1ccccc1NS(=O)(=O)c1ccc2oc(SC(C)C)nc2c1 | 19.3 | 40.4 | 17 | 68.9 | 10.3 | 43.9 | 29.5 | > 100 | 25.6 | > 100 | 48.9 | > 100 | 18.4 | 70.3 | 13 | 12.4 | 52 | – | – | – |
| O=C(C/C(CCC(=O)N(Cc1ccccc1)Cc1ccccc1)=N/Nc1ccc([N+](=O)[O-])cc1[N+](=O)[O-])c1ccccc1 | – | > 100 | – | – | – | > 100 | – | > 100 | – | > 100 | – | > 100 | – | > 100 | > 100 | – | – | > 100 | – | – |
| CC[N+](C)(CC)CC(C)(C)C(=O)/C=C/c1ccc(/C=C/C(=O)C(C)(C)C[N+](C)(CC)CC)cc1 | – | > 100 | – | > 100 | – | > 100 | – | > 100 | – | > 100 | – | > 100 | – | > 100 | > 100 | – | – | > 100 | – | – |
| CC(=O)c1cc(C(=O)c2ccc3c(c2)Sc2ccccc2N3)c2c(C)cccn12 | 0.261 | 0.838 | – | – | 1.95 | > 52.3 | 0.915 | > 100 | 0.374 | > 31.8 | 0.63 | > 100 | 0.925 | 98.4 | 22.6 | 0.488 | 10.6 | > 100 | 0.621 | 0.767 |
| Cc1nc2sccn2c1C(=O)NC(=O)Nc1ccc(Cl)cc1 | – | > 100 | – | > 100 | – | > 100 | – | > 100 | – | > 100 | – | > 100 | – | > 100 | 74.3 | – | – | > 100 | – | – |
| O=C1C2C3C=C4c5ccccc5N(c5ccccc5)C4(C2C(=O)N1c1ccc(Br)cc1)[C@H]1C(=O)N(c2ccc(Br)cc2)C(=O)[C@@H]31 (stereo partly specified) | – | > 100 | – | 81.5 | – | > 100 | – | – | – | > 100 | – | > 100 | – | > 100 | > 100 | – | – | > 100 | – | – |
| CN(C)c1ccc(/C=c2/c3ccccc3n3c2c2cc(F)ccc2[n+]3C)cc1 | 2.98 | 12.5 | 11.6 | 29.4 | – | – | 3.38 | 15.7 | 3.83 | 16.4 | 16.2 | 31.5 | 8.21 | > 34.3 | 25.3 | 13.4 | 34.5 | > 36.7 | 5.98 | 6.36 |
| CC12CCC3c4cc(Br)c(O)c(Br)c4CCC3C1CCC2O (stereo unspecified) | – | 56.4 | – | 31.5 | – | 34.5 | – | 49.6 | – | 42.1 | – | > 100 | – | 46.8 | – | – | 27.4 | 34 | – | – |
